Bounds are passed on as bounds.

The first data set in a line: Antioxidant activity assessed as inhibition of lipid peroxidation after 1 hr by TBARS assay. The class given is physicochemical.
Settings: not given
With `Cc1cc(C(C)(C)C)c(O)c(C(C)(C)C)c1` [BUTYLATED HYDROXYTOLUENE], the IC50 (in general, the point on the concentration scale where inhibition reaches its midpoint) was 36.7 µM.

In the case of `COc1ccccc1NC(=S)NNC(=O)CSCc1cc(C(C)(C)C)c(O)c(C(C)(C)C)c1`, the IC50 was 60.5 µM.

For `COc1ccc(NC(=S)NNC(=O)CSCc2cc(C(C)(C)C)c(O)c(C(C)(C)C)c2)cc1`, the IC50 was 30.1 µM.

Turning to `CC(C)(C)c1cc(CSCC(=O)O)cc(C(C)(C)C)c1O`, the IC50 is 38.8 µM.

As for `COc1ccccc1Nc1nnc(CSCc2cc(C(C)(C)C)c(O)c(C(C)(C)C)c2)s1`, the IC50 turned out to be 13.2 µM.

`COc1ccccc1-n1c(S)nnc1CSCc1cc(C(C)(C)C)c(O)c(C(C)(C)C)c1`: the IC50 was 38.9 µM.

Take `COc1ccc(-n2c(S)nnc2CSCc2cc(C(C)(C)C)c(O)c(C(C)(C)C)c2)cc1`: the IC50 amounted to 2.85 µM.

For `Cc1c(C)c2c(c(C)c1O)CC[C@@](C)(CCC[C@H](C)CCC[C@H](C)CCCC(C)C)O2` [ALPHA-TOCOPHEROL], the IC50 turned out to be 5.63 µM.

As for `COc1ccc(Nc2nnc(CSCc3cc(C(C)(C)C)c(O)c(C(C)(C)C)c3)s2)cc1`, the IC50 worked out at 7.98 µM.

Another data set is described as follows: Antioxidant activity assessed as inhibition of lipid peroxidation at 100 uM after 1 hr by TBARS assay. Format: physicochemical.
Settings: not given
As for `Cc1cc(C(C)(C)C)c(O)c(C(C)(C)C)c1` [BUTYLATED HYDROXYTOLUENE], the Imax amounted to 79.45%.

For the molecule `COc1ccccc1NC(=S)NNC(=O)CSCc1cc(C(C)(C)C)c(O)c(C(C)(C)C)c1`, the Imax was 94.75%.

In the case of `COc1ccc(NC(=S)NNC(=O)CSCc2cc(C(C)(C)C)c(O)c(C(C)(C)C)c2)cc1`, the Imax came out at 96.58%.

In the case of `CC(C)(C)c1cc(CSCC(=O)O)cc(C(C)(C)C)c1O`, the Imax was determined as 73.99%.

For `COc1ccccc1Nc1nnc(CSCc2cc(C(C)(C)C)c(O)c(C(C)(C)C)c2)s1`, the Imax is on record as 89.18%.

As for `COc1ccccc1-n1c(S)nnc1CSCc1cc(C(C)(C)C)c(O)c(C(C)(C)C)c1`, the Imax is 76.47%.

On to `COc1ccc(-n2c(S)nnc2CSCc2cc(C(C)(C)C)c(O)c(C(C)(C)C)c2)cc1`, for which the Imax is 86.43%.

As to `Cc1c(C)c2c(c(C)c1O)CC[C@@](C)(CCC[C@H](C)CCC[C@H](C)CCCC(C)C)O2` [ALPHA-TOCOPHEROL], the Imax came out at 84.69%.

Consider `COc1ccc(Nc2nnc(CSCc3cc(C(C)(C)C)c(O)c(C(C)(C)C)c3)s2)cc1`, for which the Imax turned out to be 89.84%.

Another data set in a line: Antioxidant activity assessed as DPPH free radical scavenging activity at 100 uM after 60 mins by spectrophotometry. Format: physicochemical. The following applies: 1 h. On the technique in general: Loss of DPPH colour is used to gauge radical scavenging.
For the molecule `Cc1cc(C(C)(C)C)c(O)c(C(C)(C)C)c1` [BUTYLATED HYDROXYTOLUENE], the Imax was found to be 25.23%.

On to `COc1ccccc1NC(=S)NNC(=O)CSCc1cc(C(C)(C)C)c(O)c(C(C)(C)C)c1`, for which the Imax was found to be 75.42%.

With `COc1ccc(NC(=S)NNC(=O)CSCc2cc(C(C)(C)C)c(O)c(C(C)(C)C)c2)cc1`, the Imax amounted to 76.76%.

Consider `CC(C)(C)c1cc(CSCC(=O)O)cc(C(C)(C)C)c1O`, for which the Imax was determined as 51.2%.

In the case of `O=C1O[C@H]([C@@H](O)CO)C(O)=C1O` [ASCORBIC ACID], the Imax came out at 71.39%.

With `COc1ccccc1Nc1nnc(CSCc2cc(C(C)(C)C)c(O)c(C(C)(C)C)c2)s1`, the Imax turned out to be 54.69%.

On to `COc1ccccc1-n1c(S)nnc1CSCc1cc(C(C)(C)C)c(O)c(C(C)(C)C)c1`, for which the Imax was found to be 27.83%.

Consider `COc1ccc(-n2c(S)nnc2CSCc2cc(C(C)(C)C)c(O)c(C(C)(C)C)c2)cc1`, for which the Imax was 52.94%.

Regarding `COc1ccc(Nc2nnc(CSCc3cc(C(C)(C)C)c(O)c(C(C)(C)C)c3)s2)cc1`, the Imax stood at 59.29%.

The nature of a further data set: Antioxidant activity assessed as DPPH free radical scavenging activity after 60 mins by spectrophotometry. Format: physicochemical.
Settings: not given
Turning to `Cc1cc(C(C)(C)C)c(O)c(C(C)(C)C)c1` [BUTYLATED HYDROXYTOLUENE], the IC50 was greater than 100 µM.

Consider `COc1ccccc1NC(=S)NNC(=O)CSCc1cc(C(C)(C)C)c(O)c(C(C)(C)C)c1`, for which the IC50 was found to be 52 µM.

Consider `COc1ccc(NC(=S)NNC(=O)CSCc2cc(C(C)(C)C)c(O)c(C(C)(C)C)c2)cc1`, for which the IC50 came out at 50.9 µM.

Turning to `CC(C)(C)c1cc(CSCC(=O)O)cc(C(C)(C)C)c1O`, the IC50 amounted to 96.7 µM.

`O=C1O[C@H]([C@@H](O)CO)C(O)=C1O` [ASCORBIC ACID]: the IC50 was found to be 67.8 µM.

In the case of `COc1ccccc1Nc1nnc(CSCc2cc(C(C)(C)C)c(O)c(C(C)(C)C)c2)s1`, the IC50 is 90.8 µM.

On to `COc1ccccc1-n1c(S)nnc1CSCc1cc(C(C)(C)C)c(O)c(C(C)(C)C)c1`, for which the IC50 is greater than 100 µM.

For the molecule `COc1ccc(-n2c(S)nnc2CSCc2cc(C(C)(C)C)c(O)c(C(C)(C)C)c2)cc1`, the IC50 was 92.7 µM.

For the molecule `COc1ccc(Nc2nnc(CSCc3cc(C(C)(C)C)c(O)c(C(C)(C)C)c3)s2)cc1`, the half-maximal inhibitory concentration (IC50) was 76.8 µM.

(Values after ChEMBL document CHEMBL3351533, “PASS-assisted design, synthesis and antioxidant evaluation of new butylated hydroxytoluene derivatives” (Eur J Med Chem, 2014).)
